# Measurements from patent publication US20240358693A1, “METHODS OF TREATING PAIN” (Aisa Pharma, Inc., priority 2023, published 2024).
# System: participants with SSc-RP
# Assay: Average severity of weekly RP attacks (VAS 0-10 cm scale)
# Format: in vivo, human
# From the text: The absolute change in average severity of weekly RP attacks (VAS 0-10 cm scale) from baseline to the end of each Dosing Period was and will be a secondary outcome variable. The sponsor-developed participant-informed diary will be used to record data. Average severity of weekly RP attacks is defined as the total severity scores of RP attacks divided by total number of RP attacks within the last 7 days of each dosing period. Total severity scores of RP attacks during the last 7 days of screening period divided by the total number of RP attacks will be used as baseline for the analysis of all periods. The variable will be calculated similar to frequency data as before.
# [1] = Cilnidipine 20 mg, ITT Population - Part A
# [2] = Cilnidipine 20 mg, first Baseline RCS subgroup block (not named), ITT Part A
# [3] = Cilnidipine 20 mg, first Baseline RCS subgroup block (not named), ITT Part A, score 0-10
# [4] = Excluding Outliers, Cilnidipine 10 mg, first Baseline RCS subgroup block (not named), ITT Part A
# [5] = Excluding Outliers, Cilnidipine 10 mg, first Baseline RCS subgroup block (not named), ITT Part A, score 0-10
# [6] = Excluding Outliers, Cilnidipine 20 mg, first Baseline RCS subgroup block (not named), ITT Part A
# [7] = Excluding Outliers, Cilnidipine 20 mg, first Baseline RCS subgroup block (not named), ITT Part A, score 0-10
# [8] = Excluding Outliers, Pooled Cilnidipine 10 mg and Cilnidipine 10 mg + Tadalafil 5 mg, first Baseline RCS subgroup block (not named), ITT Part A
# [9] = Excluding Outliers, Pooled Cilnidipine 10 mg and Cilnidipine 10 mg + Tadalafil 5 mg, first Baseline RCS subgroup block (not named), ITT Part A, score 0-10
# [10] = Excluding Outliers, Pooled Cilnidipine 10 mg and Cilnidipine 10 mg + Tadalafil 5 mg, second Baseline RCS subgroup block (not named), ITT Part A
# [11] = Excluding Outliers, Pooled Cilnidipine 10 mg and Cilnidipine 10 mg + Tadalafil 5 mg, second Baseline RCS subgroup block (not named), ITT Part A, score 0-10
# [12] = Excluding Outliers, Pooled Cilnidipine 20 mg and Cilnidipine 20 mg + Tadalafil 5 mg, first Baseline RCS subgroup block (not named), ITT Part A
# [13] = Excluding Outliers, Pooled Cilnidipine 20 mg and Cilnidipine 20 mg + Tadalafil 5 mg, first Baseline RCS subgroup block (not named), ITT Part A, score 0-10
# [14] = Excluding Outliers, Pooled Cilnidipine 20 mg and Cilnidipine 20 mg + Tadalafil 5 mg, second Baseline RCS subgroup block (not named), ITT Part A
# [15] = Excluding Outliers, Pooled Cilnidipine 20 mg and Cilnidipine 20 mg + Tadalafil 5 mg, second Baseline RCS subgroup block (not named), ITT Part A, score 0-10
# [16] = Excluding Outliers, Pooled Cilnidipine, first Baseline RCS subgroup block (not named), ITT Part A
# [17] = Excluding Outliers, Pooled Cilnidipine, first Baseline RCS subgroup block (not named), ITT Part A, score 0-10
# [18] = Pooled (over cilnidipine doses), Excluding Outliers, ITT Population - Part A
# [19] = Pooled (over cilnidipine doses), Excluding Outliers, by Baseline RCS, first subgroup, ITT Population - Part A
# [20] = Pooled (over cilnidipine doses), ITT Population - Part A
smiles,measurement,setting,value
"COCCOC(=O)C1=C(C)NC(C)=C(C(=O)OC/C=C/c2ccccc2)C1c1cccc([N+](=O)[O-])c1 (stereo not shown) [Cilnidipine, cilnidipine]","Average Severity of Weekly RP Attacks (All Attacks), Change from Baseline, Median",[1],−1.07
same,"Average Severity of Weekly RP Attacks (All Attacks), Mean",[1],2.30
same,"Average Severity of Weekly RP Attacks (All Attacks), Median",[1],2.30
same,"Average Severity of Weekly RP Attacks (All Attacks), Percent Change from Baseline, Mean",[1],−27.26%
same,"Average Severity of Weekly RP Attacks (All Attacks), Percent Change from Baseline, Median",[1],−27.26%
same,"Average Severity of Weekly RP Attacks (All Attacks), Percent Change from Baseline, Mean",[2],−27.26%
same,"Average Severity of Weekly RP Attacks (All Attacks), Percent Change from Baseline, Median",[2],−27.26%
same,"Average Severity of Weekly RP Attacks (All Attacks), Change from Baseline, Mean",[3],−1.07
same,"Average Severity of Weekly RP Attacks (All Attacks), Change from Baseline, Median",[3],−1.07
same,"Average Severity of Weekly RP Attacks (All Attacks), Mean",[3],2.30
same,"Average Severity of Weekly RP Attacks (All Attacks), Median",[3],2.30
same,Mean % reduction in severity,Cilnidipine (20 mg) (n = 3),35.5%
same,Mean severity at baseline,Cilnidipine (20 mg) (n = 3),3.7
same,Severity,Cilnidipine (20 mg) (n = 3),−36%
same,"Average Severity of Weekly RP Attacks (All Attacks), Percent Change from Baseline, Mean",[4],0.55%
same,"Average Severity of Weekly RP Attacks (All Attacks), Percent Change from Baseline, Median",[4],0.55%
same,"Average Severity of Weekly RP Attacks (All Attacks), Change from Baseline, Mean",[5],0.02
same,"Average Severity of Weekly RP Attacks (All Attacks), Change from Baseline, Median",[5],0.02
same,"Average Severity of Weekly RP Attacks (All Attacks), Mean",[5],3.05
same,"Average Severity of Weekly RP Attacks (All Attacks), Median",[5],3.05
same,"Average Severity of Weekly RP Attacks (All Attacks), Percent Change from Baseline, Mean",[6],−27.26%
same,"Average Severity of Weekly RP Attacks (All Attacks), Percent Change from Baseline, Median",[6],−27.26%
same,"Average Severity of Weekly RP Attacks (All Attacks), Change from Baseline, Mean",[7],−1.07
same,"Average Severity of Weekly RP Attacks (All Attacks), Change from Baseline, Median",[7],−1.07
same,"Average Severity of Weekly RP Attacks (All Attacks), Mean",[7],2.30
same,"Average Severity of Weekly RP Attacks (All Attacks), Median",[7],2.30
same,"Average Severity of Weekly RP Attacks (All Attacks), Percent Change from Baseline, Mean",[8],−23.94%
same,"Average Severity of Weekly RP Attacks (All Attacks), Percent Change from Baseline, Median",[8],−23.94%
same,"Average Severity of Weekly RP Attacks (All Attacks), Change from Baseline, Mean",[9],−1.35
same,"Average Severity of Weekly RP Attacks (All Attacks), Change from Baseline, Median",[9],−1.35
same,"Average Severity of Weekly RP Attacks (All Attacks), Mean",[9],2.97
same,"Average Severity of Weekly RP Attacks (All Attacks), Median",[9],2.97
same,"Average Severity of Weekly RP Attacks (All Attacks), Percent Change from Baseline, Mean",[10],−21.20%
same,"Average Severity of Weekly RP Attacks (All Attacks), Percent Change from Baseline, Median",[10],−21.20%
same,"Average Severity of Weekly RP Attacks (All Attacks), Change from Baseline, Mean",[11],−1.32
same,"Average Severity of Weekly RP Attacks (All Attacks), Change from Baseline, Median",[11],−1.32
same,"Average Severity of Weekly RP Attacks (All Attacks), Mean",[11],4.90
same,"Average Severity of Weekly RP Attacks (All Attacks), Median",[11],4.90
same,"Average Severity of Weekly RP Attacks (All Attacks), Percent Change from Baseline, Mean",[12],−21.36%
same,"Average Severity of Weekly RP Attacks (All Attacks), Percent Change from Baseline, Median",[12],−9.57%
same,"Average Severity of Weekly RP Attacks (All Attacks), Change from Baseline, Mean",[13],−0.84
same,"Average Severity of Weekly RP Attacks (All Attacks), Change from Baseline, Median",[13],−0.39
same,"Average Severity of Weekly RP Attacks (All Attacks), Mean",[13],2.78
same,"Average Severity of Weekly RP Attacks (All Attacks), Median",[13],2.40
same,"Average Severity of Weekly RP Attacks (All Attacks), Percent Change from Baseline, Mean",[14],−23.23%
same,"Average Severity of Weekly RP Attacks (All Attacks), Percent Change from Baseline, Median",[14],−23.23%
same,"Average Severity of Weekly RP Attacks (All Attacks), Change from Baseline, Mean",[15],−1.53
same,"Average Severity of Weekly RP Attacks (All Attacks), Change from Baseline, Median",[15],−1.53
same,"Average Severity of Weekly RP Attacks (All Attacks), Mean",[15],5.06
same,"Average Severity of Weekly RP Attacks (All Attacks), Median",[15],5.06
same,"Average Severity of Weekly RP Attacks (All Attacks), Percent Change from Baseline, Mean",[16],−17.99%
same,"Average Severity of Weekly RP Attacks (All Attacks), Percent Change from Baseline, Median",[16],−7.69%
same,"Average Severity of Weekly RP Attacks (All Attacks), Change from Baseline, Mean",[17],−0.71
same,"Average Severity of Weekly RP Attacks (All Attacks), Change from Baseline, Median",[17],−0.20
same,"Average Severity of Weekly RP Attacks (All Attacks), Mean",[17],2.55
same,"Average Severity of Weekly RP Attacks (All Attacks), Median",[17],2.40
same,"Average Severity of Weekly RP Attacks (All Attacks), Change from Baseline, Mean",[18],−0.71
same,"Average Severity of Weekly RP Attacks (All Attacks), Change from Baseline, Median",[18],−0.20
same,"Average Severity of Weekly RP Attacks (All Attacks), Mean",[18],2.55
same,"Average Severity of Weekly RP Attacks (All Attacks), Median",[18],2.40
same,"Average Severity of Weekly RP Attacks (All Attacks), Percent Change from Baseline, Mean",[18],−17.99%
same,"Average Severity of Weekly RP Attacks (All Attacks), Percent Change from Baseline, Median",[18],−7.69%
same,Average Severity of Weekly Symptomatic RP Attacks (Mean),[19],2.79
same,Average Severity of Weekly Symptomatic RP Attacks (Median),[19],2.40
same,"Average Severity of Weekly Symptomatic RP Attacks, Change from Baseline, Mean",[19],−0.87
same,"Average Severity of Weekly Symptomatic RP Attacks, Change from Baseline, Median",[19],−0.33
same,"Average Severity of Weekly Symptomatic RP Attacks, Percent Change from Baseline, Mean",[19],−19.22%
same,"Average Severity of Weekly Symptomatic RP Attacks, Percent Change from Baseline, Median",[19],−12.02%
same,"Average Severity of Weekly RP Attacks (All Attacks), Change from Baseline, Mean",[20],−0.71
same,"Average Severity of Weekly RP Attacks (All Attacks), Change from Baseline, Median",[20],−0.20
same,"Average Severity of Weekly RP Attacks (All Attacks), Mean",[20],2.55
same,"Average Severity of Weekly RP Attacks (All Attacks), Median",[20],2.40
same,"Average Severity of Weekly RP Attacks (All Attacks), Percent Change from Baseline, Mean",[20],−17.99%
